Measurements published in article PMC8861615, “Searching for plant-derived antivirals against dengue virus and Zika virus” (Virology Journal, 2022).
Entries after “also recorded” stand apart in the source; their conditions may differ. Like-named read-outs stand apart in the source and are kept apart here.

What was measured:
[1] = system: DENV-2; test: Anti-DENV-2 activity by viral CPE reduction and MTT method in BHK-21 cells; format: cell-based, Dengue virus serotype 2
Protocol: (§1) Plant extracts were screened for their cytotoxic and anti-ZIKV and anti-DENV activities in Vero cells and BHK-21, respectively, in 96-well culture plates by observing the reduction of the viral cytopathic effect (CPE) and then measured by the MTT method. The crude extracts were dissolved in 4% DMSO aqueous solution, and their concentration was normalized to 50 µg/ml with Eagle's minimum essential medium (MEM) supplemented with 2% fetal bovine serum (FBS). Briefly, 8 × 10^3 of BHK-21 cells or 1 × 10^4 of Vero cells per well were seeded in a 96-well plate and incubated for 24 h at 37 °C and 5% CO2 atmosphere. Extract solution and virus suspension, at a multiplicity of infection (m.o.i.) of 2, for both viruses, were simultaneously added on 70% confluent monolayers. Each extract was tested in duplicate. Controls of untreated infected and untreated uninfected cells incubated with or without DMSO were included. Interferon-α 2B, in concentrations of 500 and 1000 IU/mL, was used as a positive antiviral control in all antiviral assays. […] Briefly, the supernatants were removed, and 30 µl of a stock solution of MTT (2 mg/ml) dissolved in phosphate-buffered saline were added to each well. After 90 min of incubation at 37 °C, 130 µl of DMSO were added to each well, and plates were homogenized for 5 min at 500 rpm. The absorbance values of each reaction were measured in an ELISA reader (Spectra Max, Molecular Devices, USA) at λ540 nm. […] Cytotoxicity (CC50) and anti-ZIKV/DENV-2 (CE50) experiments were performed in duplicate and repeated at least three times.
(§2) Viral CPE and cell viability were observed by optic microscopy and measured by the MTT method as previously described. […] The experiments were performed in duplicate and repeated at least three times.
(§3) Bioassay data were normalized to untreated uninfected cells and the EC50 and CC50 values were obtained using GraphPad Prism 5 based on nonlinear logistic regression of the experimental dose–response curves. […] The CC50 and EC50 values ratio was used as a selectivity index (SI).

[2] = system: ZIKV; test: microbe, parasite or virus in culture; format: cell-based, Zika virus; details: for EC50 / ZIKV EC50 (µM): compounds, Vero cells, MTT
Protocol: as §1, §2, §3

[3] = Cytotoxicity (CC50) by MTT method in BHK-21 cells; format: cell-based, Hamster; details: hamster, compounds, MTT
Protocol: (§4) Compounds and selected extracts that tested positive for anti-ZIKV or anti-DENV-2 activity at the screening step had their CC50 determined by using an 8‐point dose range in 96 well microplate containing Vero or BHK-21 cell monolayers. Cell viability was observed by optic microscopy and measured by the MTT method as described. The experiments were performed in duplicate and repeated at least three times.
(§5) Bioassay data were normalized to untreated uninfected cells and the EC50 and CC50 values were obtained using GraphPad Prism 5 based on nonlinear logistic regression of the experimental dose–response curves. The values correspond to three independent assays' average and standard deviation with at least 8 sample distinct concentrations. The CC50 and EC50 values ratio was used as a selectivity index (SI). The extracts and compounds with higher SI values were considered the most promising and selected for further investigation if available in sufficient quantities.

[4] = Cytotoxicity (CC50) by MTT method in Vero cells; format: cell-based; details: African green monkey, compounds, MTT
Protocol: as §4, §5

[5] = system: DENV-2; test: Virucidal activity by plaque reduction assay, DENV in BHK-21 cells; format: cell-based, Dengue virus serotype 2; details: compounds
Protocol: (§6) The virucidal activity of extracts and compounds against ZIKV and DENV was assessed by plaque reduction assay in Vero and BHK-21 cells, respectively, in 24 well microplates. […] Virus suspension without the extract/compound was included as a control. Surviving infectious viral particles were assessed by viral plaque formation assay. Briefly, the infected monolayers were overlaid with 1.5% carboxymethyl cellulose containing MEM with 2% FBS and incubated for five days. After that, cell monolayers were fixed with 10% formaldehyde and stained with 1% crystal violet 1% in an 30% ethanol aqueous solution.

[6] = system: ZIKV; test: Virucidal activity by plaque reduction assay, ZIKV in Vero cells; format: cell-based, Zika virus; details: compounds
Protocol: as §6

[7] = system: BHK-21 cells; test: Cytotoxicity (CC50) by MTT method in BHK-21 cells; format: cell-based, Hamster; details: for CC50: compounds, MTT
Protocol: as §4, §5

[8] = system: Vero cells; test: Cytotoxicity (CC50) by MTT method in Vero cells; format: cell-based; details: for CC50: compounds, MTT
Protocol: as §4, §5

[9] = Dengue virus, DENV2, BHK-21, read-out: DENV-2 EC50 (µM)
[10] = compounds, BHK-21 cells, MTT, read-out: DENV-2 EC50

Structure (SMILES) | DENV-2 Virucidal activity [5] | ZIKV Virucidal activity [6] | EC50 [2] | CC50 [7] | CC50 [8] | DENV-2 EC50 (µM) ([1]; compounds, BHK-21 cells, MTT) | also measured
O[C@H]1[C@H]2c3cc4c(cc3CN3CCC(=C[C@@H]1O)[C@H]23)OCO4 [Lycorine] | No | No |  |  |  |  | EC50 [1, 9]: 0.5 µM; EC50 ([2]; Zika virus): 0.9 µM; CC50 [3]: 4.3 µM; CC50 [4]: 3.4 µM
O=C1NC2C(=C[C@H](O)[C@@H](O)[C@H]2OC2OCC(O)C(O)C2O)c2cc3c(c(O)c21)OCO3 (stereo partly drawn) [Narciclasine-4-O-β-D-xylopyranoside, narciclasine-4-O-β-D-xylopyranoside] | No | No | 7.9 µM | 39.3 µM | 51.8 µM |  | EC50 [1, 10]: 7.9 µM; Times less toxic than narciclasine in BHK-21 cells ([7]; ratio versus narciclasine): 430 times; Times less toxic than narciclasine in Vero cells ([8]; ratio versus narciclasine): 430 times
CC(=O)O[C@H]1[C@H]2c3cc4c(cc3CN3CCC(=C[C@@H]1O)[C@H]23)OCO4 [1-acetyl-lycorine] | No | No | 19.3 µM | 7.8 µM | 19.8 µM | no antiviral activity; also recorded: Inactive | 
O=C1N[C@@H]2C(=C[C@H](O)[C@@H](O)[C@H]2O)c2cc3c(c(O)c21)OCO3 [Narciclasine] | No | No | 0.02 µM |  |  |  | EC50 [1, 10]: 0.02 µM; Active concentration against DENV-2, times less than lycorine ([1]; ratio versus lycorine): 25 times; Active concentration against DENV-2, times less than pretazettine ([1]; ratio versus pretazettine): 40 times; Active concentration against ZIKV, times less than lycorine ([2]; ratio versus lycorine): 45 times; Active concentration against ZIKV, times less than pretazettine ([2]; ratio versus pretazettine): 95 times
CC(=O)O[C@H]1[C@H]2c3cc4c(cc3CN3CCC(=C[C@@H]1OC(C)=O)[C@H]23)OCO4 [1,2-diacetyl-lycorine] | No | No |  | > 100 µM | > 100 µM | no antiviral activity; also recorded: Inactive | ZIKV EC50 (µM) [2]: Inactive
C[C@@H]1O[C@@H](OC[C@H]2O[C@@H](Oc3c(-c4ccc(O)c(O)c4)oc4cc(O)cc(O)c4c3=O)[C@H](O)[C@@H](O)[C@@H]2O)[C@H](O)[C@H](O)[C@H]1O [Rutine] | No |  |  | > 300 µM | > 300 µM | no antiviral activity; also recorded: Inactive | ZIKV EC50 (µM) [2]: no antiviral activity; also recorded: Inactive
CO[C@@H]1C=C[C@@]23c4cc5c(cc4C(O)O[C@H]2CN(C)[C@H]3C1)OCO5 (stereo partly drawn) [Pretazettine] | No | No |  |  |  |  | EC50 [1, 9]: 0.8 µM; EC50 ([2]; Zika virus): 1.9 µM; CC50 ([3]; BHK-21 cell monolayers): 5.4 µM; CC50 ([4]; Vero cell monolayers): 7.2 µM
